The target in data set [1] is T1, p53-MDM2 interaction (human MDM2 protein, amino acids 2-188) (Homo sapiens, UniProt Q00987).
T1 construct: human MDM2 protein (amino acids 2-188); made in house
Put plainly: p53-MDM2 Assay 1: TR-FRET inhibition of p53-MDM2 interaction. The conditions noted are these: 1.25 nM MDM2-biotinylated, 10 nM Cy5-p53 peptide. It is filed as binding. On the procedure:
(§1) Time Resolved Fluorescence Energy Transfer (TR-FRET) Assay
(§2) The inhibition of p53-MDM2 and p53-MDM4 interactions is measured by time resolved fluorescence energy transfer (TR-FRET). Fluorescence energy transfer (or Foerster resonance energy transfer) describes an energy transfer between donor and acceptor fluorescent molecules. For this assay, human MDM2 protein (amino acids 2-188) and human MDM4 protein (amino acids 2-185), tagged with a C-terminal biotin moiety, are used in combination with a Europium labeled streptavidin (Perkin Elmer, Inc., Waltham, Mass., USA) serving as the donor fluorophore. The p53 derived, Cy5 labeled peptide Cy5-TFSDLWKLL (p53 aa18-26) is the energy acceptor. Upon excitation of the donor molecule at 340 nm, binding interaction between MDM2 or MDM4 and the p53 peptide induces energy transfer and enhanced response at the acceptor emission wavelength at 665 nm. Disruption of the formation of the p53-MDM2 or p53-MDM4 complex due to an inhibitor molecule binding to the p53 binding site of MDM2 or MDM4 results in increased donor emission at 620 nm. The ratiometric FRET assay readout is calculated from the raw data of the two distinct fluorescence signals measured in time resolved mode (fluorescence 665 nm/fluorescence 620 nm×1000).
(§3) After addition of 1.25 nM MDM2-biotinylated or 2.5 nM MDM4-biotinylated (internal preparations, both MDM2 and MDM4 are biotinylated at the C-terminal of the peptide construct), and 0.625 nM Europium labeled streptavidin (Perkin Elmer), the solution is pre-incubated for 15 minutes at room temperature, then 10 nM Cy5-p53 peptide (internal preparation, the Cy5 dye is directly bound to the N-terminal part of p53 peptide construct) is added before an incubation at room temperature for 15 minutes prior to reading the plate. For measurement of samples, a Victor II microplate reader (Perkin Elmer) is used with the following settings: Excitation 340 nm, Emission Donor 620 nm and Emission Acceptor 665 nm. IC50 values are calculated by curve fitting using XLfit. If not specified, reagents are purchased from Sigma-Aldrich Chemie GmBH, Buchs, Switzerland.
(§4) This assay was used to evaluate compounds displaying inhibition of p53-MDM2 interaction and p53-MDM4 interaction at IC50s of 0.005 to 50 μM (p53-MDM2 Assay 1 and p53-MDM4 Assay 1, respectively). For selected compounds displaying IC50s between […] on MDM2, a slightly modified assay is used with the following adaptations: 0.1 nM MDM2, 0.1 nM Europium labeled streptavidin and Tecan genios Pro is used as a microplate reader for the fluorescence measurements (p53-MDM2 Assay 2).

Data set [2] deals with T2, p53-MDM4 interaction (human MDM4 protein, amino acids 2-185) (Homo sapiens, UniProt O15151).
T2 construct: human MDM4 protein (amino acids 2-185); made in house
T2 sequence (O15151 2-185): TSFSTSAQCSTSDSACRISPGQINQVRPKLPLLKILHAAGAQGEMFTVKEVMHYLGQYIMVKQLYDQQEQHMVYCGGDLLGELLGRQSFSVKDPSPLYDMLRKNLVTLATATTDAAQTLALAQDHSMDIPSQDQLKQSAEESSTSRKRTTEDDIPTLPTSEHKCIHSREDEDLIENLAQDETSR
Put plainly: p53-MDM4 Assay 1: TR-FRET inhibition of p53-MDM4 interaction. As to conditions: 2.5 nM MDM4-biotinylated, 10 nM Cy5-p53 peptide. It is filed as binding. On the procedure: as §1, §2, §3, §4
(In general: TR-FRET usually uses a lanthanide donor and a delayed reading to cut background.)

Data set [3] has as its target T1, p53-MDM2 interaction (human MDM2 protein, amino acids 2-188). Put plainly: p53-MDM2 Assay 2: slightly modified TR-FRET assay. As to conditions: 0.1 nM MDM2, 0.1 nM Europium labeled streptavidin, Tecan genios Pro reader. It is filed as binding. On the procedure:
as §1, §2, §3, §4

T1 sequence (Q00987 2-188): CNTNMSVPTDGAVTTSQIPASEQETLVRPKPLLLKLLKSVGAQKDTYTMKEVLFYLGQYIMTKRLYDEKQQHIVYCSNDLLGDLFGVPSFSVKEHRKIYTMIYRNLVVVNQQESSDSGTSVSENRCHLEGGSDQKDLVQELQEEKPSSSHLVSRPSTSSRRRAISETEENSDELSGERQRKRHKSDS

Broadly, the IC50 is the point on the concentration scale where inhibition reaches its midpoint. In general, melting point refers to the temperature, or range, at which the solid turns liquid. `CC(C)=CCn1nc2c(c1C(C)C)C(c1ccc(Cl)cc1C)N(c1cccc(Cl)c1F)C(=O)N2` (stereo not drawn) [Example 4, 5-(3-chloro-2-fluorophenyl)-4-(4-chloro-2-methylphenyl) -3-isopropyl-2-(3-methylbut-2-en-1-yl)-4,5-dihydro-2H-pyrazolo[3,4-d]pyrimidin-6(7H)-one] returned a melting point of 81 to 83 °C. Also, the half-maximal inhibitory concentration (IC50) in data set [1] turned out to be 3.5 nM. Further, the IC50 in data set [2] came out at 78800 nM.
Consider `COc1ccccc1-n1nc2c(c1C(C)C)C(c1ccc(Cl)cc1C)N(c1cccc(Cl)c1F)C(=O)N2` (stereo not drawn) [Example 5, 5-(3-Chloro-2-fluoro-phenyl)-4-(4-chloro-2-methyl-phenyl)-3-isopropyl-2-(2-methoxy-phenyl)-2,4,5,7-tetrahydro-pyrazolo[3,4-d]pyrimidin-6-one], for which the melting point was in the range of 140 to 143 °C. For the same compound, in data set [1], the half-inhibitory concentration (IC50) stood at 1.45 nM. The IC50 in data set [2] amounted to 1710 nM.
In the case of `COc1ccccc1-n1nc2c(c1C(C)C)[C@H](c1ccc(Cl)cc1C)N(c1cccc(Cl)c1F)C(=O)N2` [Example 6, (S)-5-(3-Chloro-2-fluoro-phenyl)-4-(4-chloro-2-methyl-phenyl)-3-isopropyl-2-(2-methoxy-phenyl)-2,4,5,7-tetrahydro-pyrazolo[3,4-d]pyrimidin-6-one], the figures for the half-inhibitory concentration (IC50) in data set [3], in data set [1] and in data set [2] were 0.42 nM, 0.7 nM and 2760 nM, respectively.
Compound `Cc1cc(Cl)ccc1C1c2c(nn(Cc3ccccn3)c2C(C)C)NC(=O)N1c1cccc(Cl)c1F` (stereo not drawn) [Example 8, 5-(3-Chloro-2-fluoro-phenyl)-4-(4-chloro-2-methyl-phenyl)-3-isopropyl-2-pyridin-2-ylmethyl-2,4,5,7-tetrahydro-pyrazolo[3,4-d]pyrimidin-6-one] showed a melting point of 150 to 153 °C. In addition, in data set [1], the IC50 was determined as 3.2 nM. The IC50 in data set [2] came out at 8200 nM.
Turning to `COc1ccccc1-n1nc2c(c1C(C)C)C(c1ccc(Cl)cc1C)N(c1cc(Cl)ccc1C)C(=O)N2` (stereo not drawn) [Example 10, 4-(4-Chloro-2-methyl-phenyl)-5-(5-chloro-2-methyl-phenyl)-3-isopropyl-2-(2-methoxy-phenyl)-2,4,5,7-tetrahydro-pyrazolo[3,4-d]pyrimidin-6-one], the IC50 in data set [3] came to 0.21 nM; in data set [1] it was 1.1 nM; in data set [2], 4700 nM.
Consider `Cc1cc(Cl)ccc1C1c2c(nn(Cc3ccccc3)c2C(C)C)NC(=O)N1c1cc(Cl)ccc1C` (stereo not drawn) [Example 11, 2-Benzyl-4-(4-chloro-2-methyl-phenyl)-5-(5-chloro-2-methyl-phenyl)-3-isopropyl-2,4,5,7-tetrahydro-pyrazolo[3,4-d]pyrimidin-6-one], for which the melting point lay in the range of 105 to 107 °C. Further, the IC50 in data set [1] amounted to 3.5 nM.
As for `COc1ccccc1-n1nc2c(c1C(C)C)C(c1ccc(Cl)cc1)N(c1cc(Cl)c(=O)n(C)c1)C(=O)N2` (stereo not drawn) [Example 13, 5-(5-Chloro-1-methyl-6-oxo-1,6-dihydro-pyridin-3-yl)-4-(4-chloro-phenyl)-3-isopropyl-2-(2-methoxy-phenyl)-2,4,5,7-tetrahydro-pyrazolo[3,4-d]pyrimidin-6-one], the results for the concentration for half-maximal inhibition (IC50) in data set [3], in data set [1] and in data set [2] were 0.25 nM, 1.6 nM and 2180 nM, respectively.
The corresponding values for `CCn1cc(N2C(=O)Nc3nn(-c4ccccc4OC)c(C(C)C)c3C2c2ccc(Cl)cc2)cc(Cl)c1=O` (stereo not drawn) [Example 14, 5-(5-Chloro-1-ethyl-6-oxo-1,6-dihydro-pyridin-3-yl)-4-(4-chloro-phenyl)-3-isopropyl-2-(2-methoxy-phenyl)-2,4,5,7-tetrahydro-pyrazolo[3,4-d]pyrimidin-6-one] are 0.33 nM, 1.5 nM and 1480 nM.
Consider `COc1ccccc1-n1nc2c(c1C(C)C)C(c1ccc(Cl)cc1C)N(c1cc(Cl)c(=O)n(C)c1)C(=O)N2` (stereo not drawn) [Example 15, 5-(5-Chloro-1-methyl-6-oxo-1,6-dihydro-pyridin-3-yl)-4-(4-chloro-2-methyl-phenyl)-3-isopropyl-2-(2-methoxy-phenyl)-2,4,5,7-tetrahydro-pyrazolo[3,4-d]pyrimidin-6-one], for which the 50% inhibitory concentration (IC50) in data set [3] worked out at 0.18 nM; in data set [1], 1.45 nM; in data set [2], 1550 nM.
On to `COc1ccccc1-n1nc2c(c1C(C)C)C(c1ccc(Cl)cc1)N(c1cc(Cl)c(=O)n(CCO)c1)C(=O)N2` (stereo not drawn) [Example 18, 5-[5-Chloro-1-(2-hydroxy-ethyl)-6-oxo-1,6-dihydro-pyridin-3-yl]-4-(4-chloro-phenyl)-3-isopropyl-2-(2-methoxy-phenyl)-2,4,5,7-tetrahydro-pyrazolo[3,4-d]pyrimidin-6-one], for which the results for the concentration for half-maximal inhibition (IC50) in data set [3], in data set [1] and in data set [2] were 0.56 nM, 1.6 nM and 2370 nM, respectively.
As to `COCCn1cc(N2C(=O)Nc3nn(-c4ccccc4OC)c(C(C)C)c3C2c2ccc(Cl)cc2C)cc(Cl)c1=O` (stereo not drawn) [Example 19, 5-[5-Chloro-1-(2-methoxy-ethyl)-6-oxo-1,6-dihydro-pyridin-3-yl]-4-(4-chloro-2-methyl-phenyl)-3-isopropyl-2-(2-methoxy-phenyl)-2,4,5,7-tetrahydro-pyrazolo[3,4-d]pyrimidin-6-one], the concentration for half-maximal inhibition (IC50) in data set [3] was 0.17 nM; in data set [1] it was 1.3 nM; in data set [2] it was 1350 nM.
For the compound `CCn1cc(N2C(=O)Nc3nn(-c4ccccc4OC)c(C(C)C)c3C2c2ccc(Cl)cc2C)cc(Cl)c1=O` (stereo not drawn) [Example 21, 5-(5-Chloro-1-ethyl-6-oxo-1,6-dihydropyridin-3-yl)-4-(4-chloro-2-methylphenyl)-3-isopropyl-2-(2-methoxyphenyl)-4,5-dihydro-2H -pyrazolo[3,4-d]pyrimidin-6(7H)-one], the concentration for half-maximal inhibition (IC50) in data set [3] turned out to be 0.19 nM; in data set [1], 1.4 nM; in data set [2] it was 1630 nM.
The corresponding values for `COc1ccccc1-n1nc2c(c1C(C)C)C(c1ccc(Cl)cc1)N(c1cc(Cl)c(=O)n(CCN(C)C)c1)C(=O)N2` (stereo not drawn) [Example 22, 5-[5-Chloro-1-(2-dimethylamino-ethyl)-6-oxo-1,6-dihydro-pyridin-3-yl]-4-(4-chloro-phenyl)-3-isopropyl-2-(2-methoxy-phenyl)-2,4,5,7-tetrahydro-pyrazolo[3,4-d]pyrimidin-6-one] are 1.43 nM, 2.7 nM and 6230 nM.
Turning to `COc1ncc(-n2nc3c(c2C(C)C)C(c2ccc(Cl)cc2C)N(c2cc(Cl)cn(C)c2=O)C(=O)N3)c(OC)n1` (stereo not drawn) [Example 32, 5-(5-Chloro-1-methyl-2-oxo-1,2-dihydropyridin-3-yl)-4-(4-chloro-2-methylphenyl)-2-(2,4-dimethoxypyrimidin-5-yl)-3-isopropyl-4,5-dihydro-2H-pyrazolo[3,4-d]pyrimidin-6(7H)-one], the IC50 in data set [3] stood at 0.21 nM.

Source of the values: patent US9556180B2, “Pyrazolo[3,4-d]pyrimidinone compounds as inhibitors of the P53/MDM2 interaction” (Novartis AG, priority 2013, dated 2017).
